Reference: BindingDB's records for doi:10.1016/j.bmcl.2007.04.071 (Berlex Biosciences, 2007)

Target: T1, 3-phosphoinositide-dependent protein kinase 1 (Homo sapiens, UniProt O15530)
T1 sequence (O15530 whole entry): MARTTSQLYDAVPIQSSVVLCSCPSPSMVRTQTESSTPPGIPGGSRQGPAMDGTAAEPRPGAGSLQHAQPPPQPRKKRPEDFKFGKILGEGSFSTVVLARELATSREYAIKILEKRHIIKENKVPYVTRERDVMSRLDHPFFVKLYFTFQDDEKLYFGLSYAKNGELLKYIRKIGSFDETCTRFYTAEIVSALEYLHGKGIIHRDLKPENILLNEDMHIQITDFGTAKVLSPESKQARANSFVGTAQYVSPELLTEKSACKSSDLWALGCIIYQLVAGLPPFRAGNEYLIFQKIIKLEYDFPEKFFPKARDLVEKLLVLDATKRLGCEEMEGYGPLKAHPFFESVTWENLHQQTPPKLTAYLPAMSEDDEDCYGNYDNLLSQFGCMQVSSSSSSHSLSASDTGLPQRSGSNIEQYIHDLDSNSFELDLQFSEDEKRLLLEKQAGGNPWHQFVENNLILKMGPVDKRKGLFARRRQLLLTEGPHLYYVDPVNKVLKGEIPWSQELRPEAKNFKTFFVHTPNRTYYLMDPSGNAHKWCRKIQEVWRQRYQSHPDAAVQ
Experiment: PDK1-mediated AKT2 Activation Assay (cAKT2 33P-SPA)
Conditions: pH 7.2; 22 °C

Structure (SMILES): O=C1Nc2ccc(-c3nnn[nH]3)cc2C1=Cc1ccc[nH]1 [(3Z)-3-(1H-pyrrol-2-ylmethylidene)-5-(1H-1,2,3,4-tetrazol-5-yl)-2,3-dihydro-1H-indol-2-one]
- IC50: 200 nM
